Data: patent US20040253224A1, “Mammalian mucinase, its recombinant production, and its use in therapy or prophylaxis against diseases in which mucus is involved or infectious diseases” (priority 2001, published 2004)

How the values were obtained:
[1] = expression of full-length cDNA in COS-1 cells, chitinolytic activity; assay type: biochemical; conditions: data not shown
Text: These two sequences are most probably splice variants of the human acidic chitinase mRNA.

[2] = pH dependence of chitinase activity (McIlvaine buffer, 4-methylumbelliferyl substrates); assay type: biochemical; conditions: McIlvaine buffer range 1.7-8.5
Procedure: Panel A: pH activity profile of the different chitinases. The pH optima were determined by monitoring enzyme activity at the indicated pH in Mcllvaine buffer. Purified human recombinant chitotriosidase (closed lozenge), purified mouse AMCase (closed circle).
(§1) The pH dependence of chitinase activity of AMCase was determined by incubating purified enzyme at a different pH (Mcllvaine buffer range 1.7-8.5) with 4-methylumbelliferyl substrates. Release of the fluorescent 4-metylumbelliferone was monitored fluorometrically (excitation […]).

[3] = system: Candida albicans strain CAi-4 spheroplasts; assay: chitin content of cell wall of regenerating spheroplasts (Calcofluor white); assay type: cell-based; conditions: 3 μg per ml enzyme, 2 hours incubation
Procedure: (§2) […]. […] Chitinase enzyme preparations were added in 3 μg/ml.
In addition, the mouse acidic chitinase and chitotriosidase were both able to digest chitin in the cell wall of regenerating spheroplasts of Candida albicans. The chitin content of the cell wall was determined with the Calcofluor white stain. When regenerating cells were incubated for 2 hours with 3 μg per ml recombinant chitotriosidase or 3 μg per ml recombinant mouse acidic chitinase, the chitin content was reduced by 27% and 33%, respectively.

[4] = assay type: physicochemical; conditions: for enzyme precipitated at 0.5% (w/v) TCA: 0.5% (w/v) trichloroacetic acid
Procedure: Panel C: Precipitation by trichloroacetic acid (TCA). Purified recombinant human chitotriosidase and mouse AMCase were incubated with the indicated percentages of TCA. The amount of remaining enzyme activity after centrifugation is shown as a percentage of initial amounts.
as §1

[5] = chitin degradation products by FACE; assay type: biochemical; conditions: FACE analysis
Procedure: FIG. 2. Degradation products with colloidal chitin as substrate. The FACE technique (described in experimental procedures) was used to visualize the cleavage products of recombinant human chitotriosidase and recombinant mouse AMCase using colloidal chitin as substrate. Lane 1, no enzyme added. Lane 2, products formed after incubation with 50 kDa recombinant human chitotriosidase with chitin. Lane 3, products formed with recombinant mouse AMCase and chitin. Lane 4, human chitotriosidase incubated without substrate. Lane 5, mouse AMCase incubated without substrate. Marker lane is indicated with M (sugar polymers are indicated on the right-hand side).
as §2

[6] = stability on pre-incubation at acidic or basic pH; assay type: physicochemical; conditions: 30 minutes pre-incubation in McIlvaine buffer
Procedure: Panel B: Effects of acidic pre-incubation. Purified recombinant human chitotriosidase and mouse AMCase were pre-incubated for 30 minutes at the indicated pH in Mcllvaine buffer prior to enzyme activity measurement at the assay pH (see experimental procedures). Activity prior to incubation at the indicated pH is defined as 100%.
as §1

[7] = cited from earlier work
[8] = system: submaxillary gland mucins; assay: viscosity and flow rate of mucin solution in vertical glass pipette; assay type: biochemical
Text: The mammalian mucinase, endogenously present at mucosal surfaces in mammals, provides the solution for the above-mentioned problems concerning diseases in which mucus is involved. A mucinase of the invention is capable of cleaving mucus. In one embodiment, a specific mouse (nucleotide sequence SEQ ID NO:3 (see, Table III, below) and amino acid sequence SEQ ID NO:4 (see, Table IV, below)) and human mucinase (nucleotide sequence SEQ ID NO:2 (see, Table II, above) and amino acid sequence SEQ ID NO:1 (see, Table I, above) is provided, called AMCase. It has a catalytically active 39 kDa domain which is connected via a hinge region with a C-terminal mucin-binding domain. To show its mucus-degrading property, we have incubated a mixture of submaxillary gland mucins with recombinant 50 kDa AMCase. The effect of the incubation was examined by analysis with SDS-PAGE and silver staining. […] The flow rate of the mucin solution, as measured in a vertically positioned glass pipette, was increased with almost a factor of 2.

[9] = system: Bovine submaxillary gland mucin; assay: degradation of mucin, SDS-PAGE and silver staining; assay type: biochemical; conditions: 125 μg mucin, 500 ng enzyme, 0.05M NaAc pH 5.0, overnight 37° C.
Procedure: FIG. 7. The effect of AMCase on glycoproteins was studied by evaluating the effect of mouse AMCase on mucin, a type of glycoproteins expressed on mucosal surfaces in the airways and gastrointestinal tract. Bovine submaxillary gland mucin (Sigma) 125 μg was dissolved in 40 μl 0.05M NaAc pH 5.0 in the presence or absence of 500 ng mouse AMCase. After overnight incubation at 37° C., the mucin was electrophorized on an SDS-PAGE gel 7.5%, followed by silver staining.
The effect of AMCase on glycoproteins was studied by evaluating the effect of AMCase on mucin, a glycoprotein expressed on mucosal surfaces in the airways and gastrointestinal tract. Bovine submaxillary gland mucin (Sigma) 125 μg was dissolved in 40 μl 0.05M NaAc pH 5.0 in the presence or absence of 500 ng mouse AMCase. After overnight incubation at 37° C., the mucin was electrophorized on an SDS-PAGE gel (7.5% homogeneous, followed by silver staining). As is shown in FIG. 7, the mucin was degraded by treatment with the AMCase.

[10] = specific activity of purified enzyme on 4MU-chitotrioside; assay type: biochemical; conditions: pH 5.2
Procedure: (§3) Chitin affinity chromatography was used to purify the enzyme. Detergent-free extracts of mouse tissues were prepared by homogenization in 10 volumes of potassium phosphate buffer pH 6.5, using an Ultra-turrax and centrifugation for 20 minutes at 15,000×g. The mouse intestine extract was adjusted to pH 5.0 by the addition of citric acid (0.2 M); NaCl was added to a final concentration of 2 M. A chitin column was prepared by mixing 10 grams swollen Sepharose G25 fine (Pharmacia, Uppsala, Sweden) with 300 mg of colloidal chitin (prepared as described by Shimahara et al. (Shimahara et al., 1988), followed by equilibration with phosphate-buffered saline (PBS) containing 2M NaCl. The extracts were applied onto the column with a flow speed of 0.4 ml/minute. After extensive washing, bound chitinase was eluted from the column with 8M urea, which was subsequently removed by dialysis. Protein concentrations were determined according to the method of Lowry et al. (Lowry et al 1951) using BSA as a standard. Fractions containing chitinase activity were subjected to SDS-PAGE and Western blotting as described (Renkema et al., 1995).
The specific activity of the purified enzyme was 3.9 nmol 4-methylumbelliferyl-chitotrioside hydrolyzed per mg per hour at pH 5.2, which is almost identical to that of human chitotriosidase.
as §2

[11] = binding to chitin particles
Procedure: as §3

[12] = system: hyphae of Candida albicans; assay: incubation of hyphae with recombinant AMCase; assay type: cell-based
[13] = resistance against proteases; assay type: physicochemical

## human AMCase: human acidic mammalian chitinase/mucinase, amino acid sequence SEQ ID NO:1
[1]
  chitinolytic activity of expressed protein: protein with chitinolytic activity

## chitotriosidase: human phagocyte chitinase, SEQ ID NO:10, used as comparator [reference compound]
[2]
  pH optimum (pronounced): only a broad pH optimum
[3]
  chitin content of cell wall reduced by: 27%
[4]
  enzyme precipitated at 0.5% (w/v) TCA: 58%
[4]; 2.5% (w/v) trichloroacetic acid
  enzyme precipitated at 2.5% (w/v) TCA: all chitotriosidase precipitates
[5]
  cleavage products released from chitin: releases mainly chitobioside fragments
[6]
  effect of pre-incubation at low pH on activity: completely inactivated

## CC(=O)N[C@@H](CS)C(=O)O [N-acetylcysteine]
[7]; in vitro
  mucolytic activity in vitro: has mucolytic activity in vitro
[7]; in vivo
  mucolytic activity in vivo: has not been demonstrated convincingly in vivo

## mouse AMCase: acidic mammalian chitinase/mucinase of mouse, 50 kDa protein, amino acid sequence SEQ ID NO:4
[2]
  less pronounced pH optimum: 4.7 pH
  pH optimum (pronounced): 2.3 pH
[8]
  viscosity of the mucin solution after incubation: markedly reduced
[8]; vertically positioned glass pipette
  increase of flow rate of the mucin solution: ~2 factor
[3]
  chitin content of cell wall reduced by: 33%
[4]
  enzyme remaining unprecipitated at 2.5% (w/v) TCA: 26%
  enzyme precipitated at 0.5% (w/v) TCA: remains in solution
[9]
  degradation of mucin: degraded substantially
[9]; listed as recombinant 50 kDa AMCase
  degradation of mucin: remarkable reduction in size of the mucins
[10]
  specific activity of the purified enzyme: 3.9 nmol 4-methylumbelliferyl-chit
[10]; listed as mouse acidic chitinase
  specific activity of the purified enzyme: 3.9 nmol 4-methylumbelliferyl-chitotrioside hydrolyzed per mg per hour
[11]
  binding to chitin particles: high affinity
[5]
  cleavage products released from chitin: releases mainly chitobioside fragments
[12]
  effect on hyphae (fungistatic effect): selective lysis of the growing tip
[13]
  resistance against proteases: quite resistant against various proteases
